Results as given in patent US20250228239A1, “MOLECULES HAVING PESTICIDAL UTILITY, AND INTERMEDIATES, COMPOSITIONS, AND PROCESSES, RELATED THERETO” (priority 2024, published 2025).
Where two headings read alike, the source gives them in different places.

Experiments:
Format in all cases: in vivo
[1] = tested on: Beet Armyworm (Spodoptera exigua, LAPHEG); experiment: Bioassays on Beet Armyworm (BAW), 128-well diet tray assay; details: Spodoptera exigua, read-out: BAW
Method in brief: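 Diet-overlay assay: 50 μg/cm^2 compound applied in 90:10 acetone-water to artificial diet, allowed to dry, then infested with 1–5 L2 larvae/well; 8 wells/compound; covered, vented; 25° C., 14:10 L:D, 5–7 d; % mortality per well, averaged.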

[2] = tested on: Cabbage Looper (Trichoplusia ni, TRIPNI); experiment: Bioassays on Cabbage Looper (CL), 128-well diet tray assay; details: Trichoplusia ni, read-out: CL
Method in brief: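 Test molecule was dissolved in 90:10 acetone-water, applied to artificial diet at 50 μg/cm^2 and allowed to dry. Second-instar larvae were then added, one to five per well, and trays held at 25° C for five to seven days before mortality was scored and averaged.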

[3] = tested on: Yellow Fever Mosquito (Aedes aegypti, AEDSAE)
Method in brief: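 Compounds from 4000 ppm DMSO stocks were diluted in 90:10 water/acetone and dispensed into wells, then infested with about 1-day-old larvae in liver-powder water. Covered plates were held at room temperature for 3 days and each well was scored for mortality against a rating scale; six replicate plates per compound.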

[4] = Table ABC: Biological Results, species BAW
[5] = Table ABC: Biological Results, species CL
[6] = Table ABC: Biological Results, species YFM
[7] = Yellow Fever Mosquito, rating class

SMILES | pest or weed control at 50 µg/cm2 [1, 4] [%] | pest or weed control at 50 µg/cm2 [2, 5] [%] | YFM [3, 6] | pest or weed control at 50 µg/cm2 ([1]; Beet Armyworm, rating class) [%] | pest or weed control at 50 µg/cm2 ([2]; Cabbage Looper, rating class) [%] | YFM [3, 7]
C=C(F)c1ccc(NC(=O)c2cc(NC(=O)[C@H]3[C@H](c4cc(Cl)cc(Cl)c4)C3(Cl)Cl)ccc2Cl)c(F)c1 (relative stereo) [F1320, trans-2-Chloro-5-(2,2-dichloro-3-(3,5-dichlorophenyl)cyclopropane-1-carboxamido)-N-(2-fluoro-4-(1-fluorovinyl)phenyl)benzamide] | 50 to 100 | 50 to 100 | A (80–100) |  |  | 
C=C(F)c1c(F)ccc(NC(=O)c2cc(NC(=O)[C@H]3[C@H](c4cc(Cl)cc(Cl)c4)C3(Cl)Cl)ccc2Cl)c1F (relative stereo) [F1321, trans-2-Chloro-5-(2,2-dichloro-3-(3,5-dichlorophenyl)cyclopropane-1-carboxamido)-N-(2,4-difluoro-3-(1-fluorovinyl)phenyl)benzamide] | 50 to 100 | 50 to 100 | A (80–100) |  |  | 
C=C(F)c1cc(NC(=O)c2cc(NC(=O)[C@H]3[C@H](c4cc(Cl)cc(Cl)c4)C3(Cl)Cl)ccc2Cl)cc(F)c1F (relative stereo) [F1323, trans-2-Chloro-5-(2,2-dichloro-3-(3,5-dichlorophenyl)cyclopropane-1-carboxamido)-N-(3,4-difluoro-5-(1-fluorovinyl)phenyl)benzamide] | 50 to 100 | 50 to 100 | A (80–100) |  |  | 
Cc1cc(NCc2ccc(O)cc2)ccc1NC(=O)c1cc(NC(=O)[C@H]2[C@H](c3cc(Cl)cc(Cl)c3)C2(Cl)Cl)ccc1Cl (relative stereo) [F1353, trans-2-Chloro-5-(2,2-dichloro-3-(3,5-dichlorophenyl)cyclopropane-1-carboxamido)-N-(4-((4-hydroxybenzyl)amino)-2-methylphenyl)benzamide] | 50 to 100 | 50 to 100 | A (80–100) |  |  | 
O=C(Nc1ccc(F)c(NC(=O)C(F)(F)F)c1F)c1cc(NC(=O)[C@H]2[C@H](c3ccc(Cl)c(Br)c3)C2(Cl)Cl)ccc1Cl (relative stereo) [F1358, trans-5-(3-(3-Bromo-4-chlorophenyl)-2,2-dichlorocyclopropane-1-carboxamido)-2-chloro-N-(2,4-difluoro-3-(2,2,2-trifluoroacetamido)phenyl)benzamide] | 50 to 100 | 50 to 100 | A (80–100) |  |  | 
O=C(Nc1ccc(F)c(NC(=O)C(F)F)c1F)c1cc(NC(=O)[C@H]2[C@H](c3ccc(Cl)c(Br)c3)C2(Cl)Cl)ccc1Cl (relative stereo) [F1359, trans-5-(3-(3-Bromo-4-chlorophenyl)-2,2-dichlorocyclopropane-1-carboxamido)-2-chloro-N-(3-(2,2-difluoroacetamido)-2,4-difluorophenyl)benzamide] | 50 to 100 | 50 to 100 | A (80–100) |  |  | 
Nc1cc(NC(=O)c2cc(NC(=O)[C@H]3[C@H](c4ccc(F)c(Cl)c4)C3(Cl)Cl)ccc2Cl)ccc1Cl (relative stereo) [F1365, trans-N-(3-Amino-4-chlorophenyl)-2-chloro-5-(2,2-dichloro-3-(3-chloro-4-fluorophenyl)cyclopropane-1-carboxamido)benzamide] | 50 to 100 | 50 to 100 | A (80–100) |  |  | 
O=C(Nc1cc(Cl)c(NC(=O)C(F)(F)F)c(Cl)c1)c1cc(NC(=O)[C@H]2[C@H](c3ccc(F)c(Cl)c3)C2(Cl)Cl)ccc1Cl (relative stereo) [F1368, trans-2-Chloro-5-(2,2-dichloro-3-(3-chloro-4-fluorophenyl)cyclopropane-1-carboxamido)-N-(3,5-dichloro-4-(2,2,2-trifluoroacetamido)phenyl)benzamide] | 50 to 100 | 50 to 100 | A (80–100) |  |  | 
Nc1ccc(NC(=O)c2cc(NC(=O)[C@H]3[C@H](c4ccc(F)c(Cl)c4)C3(Cl)Cl)ccc2Cl)cc1Cl (relative stereo) [F1370, trans-N-(4-Amino-3-chlorophenyl)-2-chloro-5-(2,2-dichloro-3-(3-chloro-4-fluorophenyl)cyclopropane-1-carboxamido)benzamide] | 50 to 100 | 50 to 100 | A (80–100) |  |  | 
O=C(Nc1ccc(NC(=O)C(F)(F)F)c(Cl)c1)c1cc(NC(=O)[C@H]2[C@H](c3ccc(F)c(Cl)c3)C2(Cl)Cl)ccc1Cl (relative stereo) [F1384, trans-2-Chloro-N-(3-chloro-4-(2,2,2-trifluoroacetamido)phenyl)-5-(2,2-dichloro-3-(3-chloro-4-fluorophenyl)cyclopropane-1-carboxamido)benzamide] | 50 to 100 | 50 to 100 | A (80–100) |  |  | 
N#Cc1cc(NC(=O)c2cc(NC(=O)[C@H]3[C@H](c4ccc(F)c(Cl)c4)C3(Cl)Cl)ccc2Cl)ccc1N (relative stereo) [F1387, trans-N-(4-Amino-3-cyanophenyl)-2-chloro-5-(2,2-dichloro-3-(3-chloro-4-fluorophenyl)cyclopropane-1-carboxamido)benzamide] | 50 to 100 | 50 to 100 | A (80–100) |  |  | 
Nc1ccc(NC(=O)c2cc(NC(=O)[C@H]3[C@H](c4ccc(F)c(Cl)c4)C3(Cl)Cl)ccc2Cl)cc1C(F)(F)F (relative stereo) [F1390, trans-N-(4-Amino-3-(trifluoromethyl)phenyl)-2-chloro-5-(2,2-dichloro-3-(3-chloro-4-fluorophenyl)cyclopropane-1-carboxamido)benzamide] | 50 to 100 | 50 to 100 | A (80–100) |  |  | 
O=C(Nc1ccc(NC(=O)C(F)(F)F)c(C(F)(F)F)c1)c1cc(NC(=O)[C@H]2[C@H](c3ccc(F)c(Cl)c3)C2(Cl)Cl)ccc1Cl (relative stereo) [F1393, trans-2-Chloro-5-(2,2-dichloro-3-(3-chloro-4-fluorophenyl)cyclopropane-1-carboxamido)-N-(4-(2,2,2-trifluoroacetamido)-3-(trifluoromethyl)phenyl)benzamide] |  |  |  | 50 to 100 | 50 to 100 | A (80–100)
Nc1c(F)ccc(NC(=O)c2cc(NC(=O)[C@H]3[C@H](c4ccc(Br)cc4)C3(Cl)Cl)ccc2Cl)c1F (relative stereo) [F1591, trans-N-(3-Amino-2,4-difluorophenyl)-5-(3-(4-bromophenyl)-2,2-dichlorocyclopropane-1-carboxamido)-2-chlorobenzamide] |  |  |  | 50 to 100 | 50 to 100 | A (80–100)
Nc1c(F)ccc(NC(=O)c2cc(NC(=O)[C@H]3[C@H](c4ccc(F)cc4)C3(Cl)Cl)ccc2Cl)c1F (relative stereo) [F1592, trans-N-(3-Amino-2,4-difluorophenyl)-2-chloro-5-(2,2-dichloro-3-(4-fluorophenyl)cyclopropane-1-carboxamido)benzamide] |  |  |  | 50 to 100 | 50 to 100 | A (80–100)
Nc1c(F)ccc(NC(=O)c2cc(NC(=O)[C@H]3[C@H](c4cccc(Br)c4)C3(Cl)Cl)ccc2Cl)c1F (relative stereo) [F1594, trans-N-(3-Amino-2,4-difluorophenyl)-5-(3-(3-bromophenyl)-2,2-dichlorocyclopropane-1-carboxamido)-2-chlorobenzamide] |  |  |  | 50 to 100 | 50 to 100 | A (80–100)
Nc1c(F)ccc(NC(=O)c2cc(NC(=O)[C@H]3[C@H](c4cccc(Cl)c4)C3(Cl)Cl)ccc2Cl)c1F (relative stereo) [F1595, trans-N-(3-Amino-2,4-difluorophenyl)-2-chloro-5-(2,2-dichloro-3-(3-chlorophenyl)cyclopropane-1-carboxamido)benzamide] |  |  |  | 50 to 100 | 50 to 100 | A (80–100)
Nc1c(F)ccc(NC(=O)c2cc(NC(=O)[C@H]3[C@H](c4cccc(F)c4)C3(Cl)Cl)ccc2Cl)c1F (relative stereo) [F1596, trans-N-(3-Amino-2,4-difluorophenyl)-2-chloro-5-(2,2-dichloro-3-(3-fluorophenyl)cyclopropane-1-carboxamido)benzamide] |  |  |  | 50 to 100 | 50 to 100 | A (80–100)
O=C(Nc1ccc(F)c(NC(=O)C(F)F)c1F)c1cc(NC(=O)[C@H]2[C@H](c3ccc(Br)cc3)C2(Cl)Cl)ccc1Cl (relative stereo) [F1597, trans-5-(3-(4-Bromophenyl)-2,2-dichlorocyclopropane-1-carboxamido)-2-chloro-N-(3-(2,2-difluoroacetamido)-2,4-difluorophenyl)benzamide] |  |  |  | 50 to 100 | 50 to 100 | A (80–100)
O=C(Nc1ccc(F)c(NC(=O)C(F)F)c1F)c1cc(NC(=O)[C@H]2[C@H](c3ccc(Cl)cc3)C2(Cl)Cl)ccc1Cl (relative stereo) [F1599, trans-2-Chloro-5-(2,2-dichloro-3-(4-chlorophenyl)cyclopropane-1-carboxamido)-N-(3-(2,2-difluoroacetamido)-2,4-difluorophenyl)benzamide] |  |  |  | 50 to 100 | 50 to 100 | A (80–100)
